Two compounds from US11478469B2, “Combination product of BCL-2 inhibitor and MDM2 inhibitor and use thereof in the prevention and/or treatment of diseases” (ASCENTAGE PHARMA (SUZHOU) CO., LTD., priority 2018, dated 2022) can be followed below.

For experiment [1], the system named is OCI-AML-3 (acute myeloid leukemia (AML)). Put plainly: CellTiter-Glo (CTG) cell proliferation assay, OCI-AML-3. In kind it is cell-based. Particulars: Homo sapiens; OCI-AML-3, single agent alone, 24 hours; read-out: IC50 for inhibition of proliferation. Here is the method:
Anti-proliferative effects were tested by CellTiter-Glo® (CTG) assay. Cells were seeded in 96-well plates and treated with different concentrations of test substance for 24 hours. […] Each test dose was tested with 3 replicate wells. Usually, 9 series of doses of the test substance were selected, and added to 96-well plates, 5 μl/well. For the combination experiment, the final volume of the two test substances was 5 μl/well. Each test dose was tested with 3 replicate wells. On the same plate, 3-6 wells were selected and added with 100 μl of dilution solution as a control group, and another 3-6 wells were used as a blank control. […] After mixing on a shaker for 2 minutes, leaving at room temperature for 10 minutes, the fluorescence value was read by using a Biotek synergy HIMF plate reader. […] For the combination test, the cell viability was calculated by normalizing the average OD value of 3 duplicate wells of the single drug control. […] Cell viability (%) values of Compound 6 alone and the combination of Compound 6 and APG-115 in the following malignant tumor cells were determined in the CTG experiment: OCI-AML-3 (acute myeloid leukemia (AML)), MV-4-11 (acute myeloid leukemia (AML)), KMS-26 (multiple myeloma (MM)), KMS-11 (multiple myeloma (MM)).
In general terms: ATP-based viability assays read luminescence as a measure of living cells.

In experiment [2] the test system is MOLM-13-Luc systemic human AML. Put plainly: Systemic MOLM-13-Luc human AML xenograft model in NOD SCID mice. In kind it is in vivo, mouse. Particulars: compound 6 100 mg/kg qd×21 d; APG-115 100 mg/kg daily for seven days. As to the method:
(1) The combined benefits of APG-115 and compound 6 for the therapy of AML was further evaluated in a difficult-to-treat disseminated MOLM-13-Luc systemic human AML model.
The MOLM-13-Luc tumor cells were maintained in vitro as suspension culture in RPMI 1640 medium supplemented with 10% heat inactivated fetal bovine serum (Gibco product), 100 U/mL penicillin and 100 μg/mL streptomycin, at 37° C. in an atmosphere of 5% CO2 in air. The tumor cells were routinely subcultured twice weekly. The cells growing in an exponential growth phase were harvested and counted for tumor inoculation.
The female NOD SCID mice were pre-treated with 2 times of 150 mg/kg cyclophosphamide, QD, at 24 hours before cell inoculation. Each mouse was inoculated with MOLM-13-Luc tumor cells (2×10^6/mouse) in 0.2 mL of PBS via tail vein for tumor development.
Animals were selected for grouping on day 3 after tumor implantation when the average bioluminescence measurement reached 3.18×107 photons/sec. A high dose pulse regimen (i.e. 100 mg/kg daily for seven days) was applied for APG-115 in this study.

For the compound `CCN1[C@@H](C(=O)NC23CCC(C(=O)O)(CC2)CC3)[C@H](c2cccc(Cl)c2F)[C@]2(C(=O)Nc3cc(Cl)ccc32)C12CCCCC2` [APG-115], in experiment [1], the IC50 came to 2.37 µM. The “anti-leukemia activity / bioluminescence signals in words” value in experiment [2] was “remarkedly decreased bioluminescence signals”.

In the case of `O=C(NS(=O)(=O)c1ccc(NC[C@H]2COCCO2)c([N+](=O)[O-])c1)c1ccc(N2CCN(CC3=C(c4ccc(Cl)cc4)CC4(CCC4)CC3)CC2)cc1Oc1cnc2[nH]ccc2c1` [Compound 6, (S)-N-((4-(((1,4-dioxan-2-yl)methyl)amino)-3-nitrophe-nyl)sulfonyl)-2-((1H-pyrrolo[2,3-b]pyridin-5-yl)oxy)-4-(4-((6-(4-chlorophenyl)spiro[3.5]non-6-en-7-yl)meth-yl)piperazin-1-yl)benzamide], in experiment [1], the IC50 worked out at 10.2 µM. Also, the “anti-leukemia activity / bioluminescence signals in words” value in experiment [2] is recorded as “limited anti-leukemia activity”.
